Measurements: patent US20240209028A1, “CNP COMPOUNDS” (priority 2022, published 2024)
Starred links: 1 amine or outer side, 2 acyl side, 3 side chain; linkers in the order of their positions; H or OH if unused. Positions of bridges follow the written chain, without caps; N, C: chain ends. Residues, ends and D or L forms follow the SMILES beside them. *: point of attachment. C18 diacid = O=C(O)CCCCCCCCCCCCCCCCC(=O)*; γGlu = O=C(O)[C@H](CCC(=O)[*:2])N[*:1]; AEEA = NCCOCCOCC(=O)O

Tests used:
[1] = CNP local tolerance study in LYD pigs (s.c. injection, histopathology); type: in vivo, domestic LYD pig; settings: for assessment for human subcutaneous administration: based on pig local tolerance
Excerpt: The purpose of this study was to evaluate the local tissue reaction response to subcutaneous injection of CNP compounds in pigs.
Procedure: In domestic pigs, the injection site was subjected to histopathologic examination after subcutaneous dosing. Injections were placed mid-back between the shoulder and hip on both sides of the dorsal midline, and one or two days before injection sites of 2×2 cm were shaved and marked by permanent ink under light anaesthesia. Each injection consisted of 100 or 200 μl formulation with a concentration of approx. 4400 μM. CNP compound formulations were prepared according to the principles in General Methods of Preparation—Method G, and were either A) 8 mM sodium phosphate, 250 mM glycerol, pH 6.5, B) 5 mM sodium acetate, 250 mM glycerol, pH 4.0 or C) 5 mM sodium acetate, 240 mM propylene glycol, pH 4.0 and physiological saline was included as negative control.
On Day 1 the pigs were lightly anaesthetised. An insulin pen (NovoPen 4) and insulin needle (NovoTwist 32G/5 mm) were used for accurate deposition of the CNP formulations in the subcutaneous fat tissue with the needle perpendicular to the skin. On Day 5 (4 days post injection) or 6 (5 days post injection), the pigs were euthanised, and the injection sites were removed and fixed in 4% phosphate buffered neutral formaldehyde in sealed plastic containers. The tissue blocks were prefixed for 2-4 hours in 10% buffered formalin, cut into 2 mm thick slabs with a multi knife, examined for macroscopic changes and finally fixed overnight in cassettes. Two slabs of tissue were selected for light microscopic evaluation where the tissue reaction was maximal or alternatively in the central part of the injection site. Three to four 2-4 μm sections were cut from three levels at 100 μm distance, stained with haematoxylin and eosin (H&E) and evaluated in a light microscope. Histopathological changes were graded on a 5-level scale ((Minimal (Min), Mild (Mil), Moderate (Mod), Marked (Mar) and Severe (Sev)). The studies are summarised in Table 18.
Results: The results are summarised in Table 19. * Necrosis was used as a marker for local subcutaneous reactions; **NAD: No Abnormalities Detected

mouse metatarsal bones = experiment: Mouse metatarsal bone dissection and culture (ex vivo bone growth); type: cell-based, mouse (NMRI); settings: 100 nM, n=8
Method: The purpose of this study was to evaluate bone growth after administration of CNP compounds in an ex vivo mouse model.
Procedure: One-day old mouse pups (NMRI, Javier Labs France) were euthanised prior to dissection. All applicable international and internal Novo Nordisk guidelines for care and use of animals were followed. The three middle metatarsal bones were dissected out from each hind paw. The dissected bones were placed in 24-well cell culture plates and cultured in 400 μl a-Minimum Essential Media supplemented with 0.2% BSA, 1% Pen/Strep at 37° C. and 5% CO2. The bones from all animals were randomised into a control group and six CNP compound-treated groups (100 nM; n=8). The medium was changed every 2-3 days. All compounds were formulated according to the principles described in General Methods of Preparation—Method G. Compounds 9435 and 9483 were formulated in A) 5 mM sodium acetate, 250 mM glycerol, pH 4.0 while compounds 9384, 9407, 9480 and 9482 were formulated in B) 8 mM sodium phosphate, 250 mM glycerol, pH 7.4.
Digital pictures were captured on day 0, 4, 7, 11, and 14 using a digital camera attached to a Nikon microscope. The length of each metatarsal bone was measured using ImageJ software and increase in bone length was expressed as percentage change from the length measured at the day of dissection (Mean (SD)).
In Table 27, metatarsal bones were isolated from mice and cultured for up to 14 days. Length was measured every 3-4 days throughout the study and expressed as percentage change from day 0 (Mean (SD)). Statistically significant differences are indicated compared to control group (two-way ANOVA).

[2] = LYD pig, s.c., approx. 4400 μM, 4 or 5 days after injection
[3] = 5 days after subcutaneous injections in the pig

Compound	local subcutaneous necrosis [1, 3]	assessment for human subcutaneous administration [1]	Increase in bone length, mean (%) change from day 0 (mouse metatarsal bones; day 4 in culture)	Increase in bone length, mean (%) change from day 0 (mouse metatarsal bones; day 7 in culture)	Increase in bone length, mean (%) change from day 0 (mouse metatarsal bones; day 11 in culture)	Increase in bone length, mean (%) change from day 0 (mouse metatarsal bones; day 14 in culture)	Number of injections by severity of necrosis: NAD [1, 2]	also measured
CC[C@H](C)[C@@H]1NC(=O)[C@H](CCCNC(=N)N)NC(=O)[C@H](CC(=O)O)NC(=O)[C@H](CC(C)C)NC(=O)[C@@H]2CCCN2C(=O)[C@H](CC(C)C)NC(=O)CNC(=O)[C@H](Cc2ccccc2)NC(=O)[C@@H](NC(=O)CNC(=O)[C@H](CCC(N)=O)NC(=O)[C@H](CO)NC(=O)CNC(=O)CNC(=O)[C@H](CCCCN)NC(=O)[C@H](CCCCN)NC(=O)[C@H](CCC(N)=O)NC(=O)[C@H](C)NC(=O)CNC(=O)[C@H](CCCCN)NC(=O)[C@H](Cc2ccc(O)cc2)NC(=O)COCCOCCNC(=O)COCCOCCNC(=O)COCCOCCNC(=O)COCCOCCNC(=O)CC[C@H](NC(=O)CC[C@H](NC(=O)CCCCCCCCCCCCCCCCC(=O)O)C(=O)O)C(=O)O)CSSC[C@@H](C(=O)O)NC(=O)CNC(=O)[C@H](CC(C)C)NC(=O)CNC(=O)[C@H](CO)NC(=O)[C@H](CC(C)C)NC(=O)[C@H](CO)NC(=O)CNC1=O [Compound 9435] ({C18 diacid-γGlu-γGlu-AEEA-AEEA-AEEA-AEEA}-YKGAQKKGGSQGCFGLPLDRIGSLSGLGC-OH; disulfide 13-29)	–	–	–	–	–	–	–	Number of injections by severity of necrosis: Mild [1, 2]: 1; Number of injections by severity of necrosis: Min. [1, 2]: 3
CC[C@H](C)[C@@H]1NC(=O)[C@H](CCCNC(=N)N)NC(=O)[C@H](CC(=O)O)NC(=O)[C@H](CC(C)C)NC(=O)[C@@H]2CCCN2C(=O)[C@H](CC(C)C)NC(=O)CNC(=O)[C@H](Cc2ccccc2)NC(=O)[C@@H](NC(=O)CNC(=O)[C@H](CCC(N)=O)NC(=O)[C@H](CO)NC(=O)CNC(=O)CNC(=O)[C@H](CCCCN)NC(=O)[C@H](CCCCN)NC(=O)[C@H](CCC(N)=O)NC(=O)[C@H](C)NC(=O)CNC(=O)[C@H](CCCCN)NC(=O)[C@H](Cc2ccc(O)cc2)NC(=O)COCCOCCNC(=O)COCCOCCNC(=O)COCCOCCNC(=O)COCCOCCNC(=O)CC[C@H](NC(=O)CC[C@H](NC(=O)CCCCCCCCCCCCCCCCC(=O)O)C(=O)O)C(=O)O)CSSC[C@@H](C(=O)O)NC(=O)CNC(=O)[C@H](CC(C)C)NC(=O)CNC(=O)[C@H](CO)NC(=O)[C@H](CC(C)C)NC(=O)[C@H](CO)NC(=O)CNC1=O [compound 9435] ({C18 diacid-γGlu-γGlu-AEEA-AEEA-AEEA-AEEA}-YKGAQKKGGSQGCFGLPLDRIGSLSGLGC-OH; disulfide 13-29; C-terminus assumed)	minimal to mild	acceptable	36.2%	47.3%	53.9%	59.2%	–	–
CC[C@H](C)[C@@H]1NC(=O)[C@H](CCCNC(=N)N)NC(=O)[C@H](CC(=O)O)NC(=O)[C@H](CC(C)C)NC(=O)[C@@H]2CCCN2C(=O)[C@H](CC(C)C)NC(=O)CNC(=O)[C@H](Cc2ccccc2)NC(=O)[C@@H](NC(=O)CNC(=O)[C@H](CO)NC(=O)[C@H](CO)NC(=O)[C@H](CC(C)C)NC(=O)CNC(=O)[C@H](CCCCN)NC(=O)[C@H](CCCCN)NC(=O)[C@H](CCC(N)=O)NC(=O)[C@H](C)NC(=O)CNC(=O)[C@H](CCCCN)NC(=O)[C@H](Cc2ccc(O)cc2)NC(=O)[C@H](CCCCN)NC(=O)[C@H](CCCNC(=N)N)NC(=O)[C@H](C)NC(=O)[C@H](CCC(N)=O)NC(=O)[C@@H]2CCCN2C(=O)[C@H](Cc2c[nH]cn2)NC(=O)[C@H](CCC(=O)O)NC(=O)[C@H](CCC(N)=O)NC(=O)CC[C@H](NC(=O)CC[C@H](NC(=O)CC[C@H](NC(=O)CC[C@H](NC(=O)CC[C@H](NC(=O)CCCCCCCCCCCCCCCCC(=O)O)C(=O)O)C(=O)O)C(=O)O)C(=O)O)C(=O)O)CSSC[C@@H](C(=O)O)NC(=O)CNC(=O)[C@H](CC(C)C)NC(=O)CNC(=O)[C@H](CO)NC(=O)[C@H](CC(C)C)NC(=O)[C@H](CO)NC(=O)CNC1=O [compound 9482] ({C18 diacid-γGlu-γGlu-γGlu-γGlu-γGlu}-QEHPQARKYKGAQKKGLSSGCFGLPLDRIGSLSGLGC-OH; disulfide 21-37)	no	acceptable	37.7%	47.1%	54.4%	57.5%	–	–
CC[C@H](C)[C@@H]1NC(=O)[C@H](CCCNC(=N)N)NC(=O)[C@H](CC(=O)O)NC(=O)[C@H](CC(C)C)NC(=O)[C@H](CCCCN)NC(=O)[C@H](CC(C)C)NC(=O)CNC(=O)[C@H](Cc2ccccc2)NC(=O)[C@@H](NC(=O)CNC(=O)[C@H](CCCCN)NC(=O)[C@H](CO)NC(=O)[C@H](CC(C)C)NC(=O)CNC(=O)[C@H](CCCCN)NC(=O)[C@H](CCCCN)NC(=O)[C@H](CCC(N)=O)NC(=O)[C@H](C)NC(=O)CNC(=O)[C@H](Cc2c[nH]cn2)NC(=O)[C@H](CCC(=O)O)NC(=O)COCCOCCNC(=O)COCCOCCNC(=O)CC[C@H](NC(=O)CCCCCCCCCCCCCCCCC(=O)O)C(=O)O)CSSC[C@@H](C(=O)O)NC(=O)CNC(=O)[C@H](CC(C)C)NC(=O)CNC(=O)[C@H](CO)NC(=O)[C@H](CC(C)C)NC(=O)[C@H](CO)NC(=O)CNC1=O [compound 1235]	–	–	–	–	–	–	–	local subcutaneous necrosis ([1]; pig, in vivo, sc): minimal to mild
CC[C@H](C)[C@@H]1NC(=O)[C@H](CCCNC(=N)N)NC(=O)[C@H](CC(=O)O)NC(=O)[C@H](CC(C)C)NC(=O)[C@@H]2CCCN2C(=O)[C@H](CC(C)C)NC(=O)CNC(=O)[C@H](Cc2ccccc2)NC(=O)[C@@H](NC(=O)CNC(=O)[C@H](CCC(N)=O)NC(=O)[C@H](CO)NC(=O)[C@H](CC(C)C)NC(=O)CNC(=O)[C@H](CCCCN)NC(=O)[C@H](CCCCN)NC(=O)[C@H](CCC(N)=O)NC(=O)[C@H](C)NC(=O)CNC(=O)[C@H](CCCCN)NC(=O)[C@H](Cc2ccc(O)cc2)NC(=O)COCCOCCNC(=O)COCCOCCNC(=O)COCCOCCNC(=O)COCCOCCNC(=O)CC[C@H](NC(=O)CC[C@H](NC(=O)CC[C@H](NC(=O)CCCCCCCCCCCCCCCCC(=O)O)C(=O)O)C(=O)O)C(=O)O)CSSC[C@@H](C(=O)O)NC(=O)CNC(=O)[C@H](CC(C)C)NC(=O)CNC(=O)[C@H](CO)NC(=O)[C@H](CC(C)C)NC(=O)[C@H](CO)NC(=O)CNC1=O [Compound 9480] ({C18 diacid-γGlu-γGlu-γGlu-AEEA-AEEA-AEEA-AEEA}-YKGAQKKGLSQGCFGLPLDRIGSLSGLGC-OH; disulfide 13-29)	–	–	–	–	–	–	4	–
CC[C@H](C)[C@@H]1NC(=O)[C@H](CCCNC(=N)N)NC(=O)[C@H](CC(=O)O)NC(=O)[C@H](CC(C)C)NC(=O)[C@@H]2CCCN2C(=O)[C@H](CC(C)C)NC(=O)CNC(=O)[C@H](Cc2ccccc2)NC(=O)[C@@H](NC(=O)CNC(=O)[C@H](CO)NC(=O)[C@H](CO)NC(=O)[C@H](CC(C)C)NC(=O)CNC(=O)[C@H](CCCCN)NC(=O)[C@H](CCCCN)NC(=O)[C@H](CCC(N)=O)NC(=O)[C@H](C)NC(=O)CNC(=O)[C@H](CCCCN)NC(=O)[C@H](Cc2ccc(O)cc2)NC(=O)[C@H](CCCCN)NC(=O)[C@H](CCCNC(=N)N)NC(=O)[C@H](C)NC(=O)[C@H](CCC(N)=O)NC(=O)[C@@H]2CCCN2C(=O)[C@H](Cc2c[nH]cn2)NC(=O)[C@H](CCC(=O)O)NC(=O)[C@H](CCC(N)=O)NC(=O)CC[C@H](NC(=O)CC[C@H](NC(=O)CC[C@H](NC(=O)CC[C@H](NC(=O)CC[C@H](NC(=O)CCCCCCCCCCCCCCCCC(=O)O)C(=O)O)C(=O)O)C(=O)O)C(=O)O)C(=O)O)CSSC[C@@H](C(=O)O)NC(=O)CNC(=O)[C@H](CC(C)C)NC(=O)CNC(=O)[C@H](CO)NC(=O)[C@H](CC(C)C)NC(=O)[C@H](CO)NC(=O)CNC1=O [Compound 9482] ({C18 diacid-γGlu-γGlu-γGlu-γGlu-γGlu}-QEHPQARKYKGAQKKGLSSGCFGLPLDRIGSLSGLGC-OH; disulfide 21-37)	–	–	–	–	–	–	4	–
